Reference: patent publication US20230295197A1, “STAT5 and STAT6 Degraders and Uses Thereof” (REGENTS OF THE UNIVERSITY OF MICHICAN, priority 2022, published 2023)
Like-named read-outs stand apart in the source and are kept apart here.

What was measured:
[1] = test system: STAT5; test: Immunoblotting (Western blot) analysis of STAT5 degradation efficiency of degraders in treated cells; type: cell-based
How it was run: (§1)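 Degradation read by quantitative near-infrared Western blot: equal protein loads (20-40 μg) from compound-treated versus untreated cells, probed overnight at 4° C. for STAT5 or STAT6 with GAPDH reference. Compound concentrations and exposure times as indicated; cells grown in medium with 10% FBS at 37° C.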

[2] = target: T1, STAT6 (Homo sapiens, UniProt P42226); test: Immunoblotting (Western blot) analysis of STAT6 degradation efficiency of degraders in treated cells; type: cell-based
T1 construct: endogenous in cells; host or cells: MOLM-16, KU-812, SKNO1, MB231, L1236
T1 sequence (P42226 1-847): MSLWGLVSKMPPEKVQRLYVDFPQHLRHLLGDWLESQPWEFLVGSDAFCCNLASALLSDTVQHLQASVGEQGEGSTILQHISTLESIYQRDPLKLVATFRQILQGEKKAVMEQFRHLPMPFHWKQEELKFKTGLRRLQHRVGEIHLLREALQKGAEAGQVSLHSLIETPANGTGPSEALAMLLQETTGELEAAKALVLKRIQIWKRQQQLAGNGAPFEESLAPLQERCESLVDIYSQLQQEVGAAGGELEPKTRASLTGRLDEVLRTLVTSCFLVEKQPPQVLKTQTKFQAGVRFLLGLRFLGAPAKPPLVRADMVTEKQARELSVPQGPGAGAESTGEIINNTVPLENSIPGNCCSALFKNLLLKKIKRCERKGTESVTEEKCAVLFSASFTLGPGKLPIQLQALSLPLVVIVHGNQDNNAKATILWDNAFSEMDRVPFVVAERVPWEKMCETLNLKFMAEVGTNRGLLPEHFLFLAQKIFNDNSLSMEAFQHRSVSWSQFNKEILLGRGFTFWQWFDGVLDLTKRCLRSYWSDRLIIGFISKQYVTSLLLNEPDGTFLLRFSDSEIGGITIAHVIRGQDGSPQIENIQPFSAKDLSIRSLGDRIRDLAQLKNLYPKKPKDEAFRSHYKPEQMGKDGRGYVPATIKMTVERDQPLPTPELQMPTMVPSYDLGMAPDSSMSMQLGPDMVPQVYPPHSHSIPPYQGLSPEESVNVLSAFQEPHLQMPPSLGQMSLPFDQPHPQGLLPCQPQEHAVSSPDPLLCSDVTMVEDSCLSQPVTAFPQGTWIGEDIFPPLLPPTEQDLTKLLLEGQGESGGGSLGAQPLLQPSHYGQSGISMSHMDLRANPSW
How it was run: as §1

[3] = MOLM-16 cells, numeric bound, read-out: DC50 S5 MOLM-16
[4] = MOLM-16 cells, numeric bound, read-out: DC50 S6 MOLM-16
[5] = KU-812 cells, read-out: DC50 S5 KU-812
[6] = MOLM-16 cells, class symbols, read-out: DC50 S5 MOLM-16
[7] = SKNO1 cells, read-out: DC50 S5 SKNO1

| DC50 [1, 5] [nM] | DC50 [1, 6] [nM] | DC50 [1, 7] [nM] | SMILES | DC50 [1, 3] [nM] | DC50 [2, 4] [nM] | further results |
| --- | --- | --- | --- | --- | --- | --- |
| – | – | – | Cc1ncsc1-c1ccc([C@H](CC(=O)NCCCCCCCC(=O)N[C@@H]2C[C@@H](C(=O)Nc3ncc(-c4ccccc4)s3)N(C(=O)[C@@H](NC(=O)c3cc4cc(C(F)(F)P(=O)(O)O)ccc4s3)C(C)(C)C)C2)NC(=O)[C@@H]2C[C@@H](O)CN2C(=O)[C@@H](NC(=O)C2(F)CC2)C(C)(C)C)cc1 [Compound 577, (difluoro(2-(((S)-1-((2S,4R)-4-(8-((S)-3-((2S,4R)-1-((S)-2-(1-fluorocyclopropane-1-carboxamido)-3,3-dimethylbutanoyl)-4-hydroxypyrrolidine-2-carboxamido)-3-(4-(4-methylthiazol-5-yl)phenyl)propanamido)octanamido)-2-((5-phenylthiazol-2-yl)carbamoyl)pyrrolidin-1-yl)-3,3-dimethyl-1-oxobutan-2-yl)carbamoyl)benzo[b]thiophen-5-yl)methyl)phosphonic acid] | > 300 | > 300 | – |
| 100 to 1000 | < 100 | 100 to 1000 | CC(C)(C)[C@H](NC(=O)c1cc2cc(C(F)(F)P(=O)(O)O)ccc2s1)C(=O)N1CCC[C@H]1C(=O)N(CCC(=O)NCCCC#Cc1cccc2c1CN(C1CCC(=O)NC1=O)C2=O)c1ccc2scnc2c1 (stereo partly drawn) [Compound 668, ((2-(((2S)-1-((2S)-2-(benzo[d]thiazol-5-yl(3-((5-(2-(2,6-dioxopiperidin-3-yl)-1-oxoisoindolin-4-yl)pent-4-yn-1-yl)amino)-3-oxopropyl)carbamoyl)pyrrolidin-1-yl)-3,3-dimethyl-1-oxobutan-2-yl)carbamoyl)benzo[b]thiophen-5-yl)difluoromethyl)phosphonic acid] | – | > 300 | – |
| – | – | – | CC(C)(C)C(=O)OCOP(=O)(O)C(F)(F)c1ccc2sc(C(=O)N[C@H](C(=O)N3CCC[C@H]3C(=O)N(CCOCCOCC#Cc3cccc4c3CN(C3CCC(=O)NC3=O)C4=O)c3ccc4ccccc4c3)C(C)(C)C)cc2c1 (stereo partly drawn) [Compound 678, ((((2-(((2S)-1-((2S)-2-((2-(2-((3-(2-(2,6-dioxopiperidin-3-yl)-1-oxoisoindolin-4-yl)prop-2-yn-1-yl)oxy)ethoxy)ethyl)(naphthalen-2-yl)carbamoyl)pyrrolidin-1-yl)-3,3-dimethyl-1-oxobutan-2-yl)carbamoyl)benzo[b]thiophen-5-yl)difluoromethyl)(hydroxy)phosphoryl)oxy)methyl pivalate] | > 300 | > 300 | – |
| – | – | – | Cc1ncsc1-c1ccc([C@H](CC(=O)NCCOCCC(=O)N[C@@H]2C[C@@H](C(=O)Nc3ncc(-c4ccccc4)s3)N(C(=O)[C@@H](NC(=O)c3cc4cc(C(F)(F)P(=O)(O)O)ccc4s3)C(C)(C)C)C2)NC(=O)[C@@H]2C[C@@H](O)CN2C(=O)[C@@H](NC(=O)C2(F)CC2)C(C)(C)C)cc1 [Compound 580, (difluoro(2-(((S)-1-((2S,4R)-4-(3-(2-((S)-3-((2S,4R)-1-((S)-2-(1-fluorocyclopropane-1-carboxamido)-3,3-dimethylbutanoyl)-4-hydroxypyrrolidine-2-carboxamido)-3-(4-(4-methylthiazol-5-yl)phenyl)propanamido)ethoxy)propanamido)-2-((5-phenylthiazol-2-yl)carbamoyl)pyrrolidin-1-yl)-3,3-dimethyl-1-oxobutan-2-yl)carbamoyl)benzo[b]thiophen-5-yl)methyl)phosphonic acid] | > 300 | > 300 | – |
| 100 to 1000 | < 100 | 100 to 1000 | CC(C)(C)[C@H](NC(=O)c1cc2cc(C(F)(F)P(=O)(O)O)ccc2s1)C(=O)N1CCC[C@H]1C(=O)N(CCC(=O)NCCCC#Cc1cccc2c1CN(C1CCC(=O)NC1=O)C2=O)c1ccc(Br)cc1 (stereo partly drawn) [Compound 406, ((2-(((2S)-1-((2S)-2-((4-bromophenyl)(3-((5-(2-(2,6-dioxopiperidin-3-yl)-1-oxoisoindolin-4-yl)pent-4-yn-1-yl)amino)-3-oxopropyl)carbamoyl)pyrrolidin-1-yl)-3,3-dimethyl-1-oxobutan-2-yl)carbamoyl)benzo[b]thiophen-5-yl)difluoromethyl)phosphonic acid] | – | – | DC50 ([2]; KU-812 cells, read-out: DC50 S6 KU-812): > 10000 nM; DC50 ([2]; MB231 cells, read-out: DC50 S6 MB231): > 10000 nM; DC50 ([2]; MOLM-16 cells, class symbols, read-out: DC50 S6 MOLM-16): > 10000 nM; DC50 ([2]; SKNO1 cells, read-out: DC50 S6 SKNO1): > 10000 nM |
| – | – | – | CC(C)(C)[C@H](NC(=O)c1cc2cc(C(F)(F)P(=O)(O)O)ccc2s1)C(=O)N1C[C@H](NC(=O)CCCCCC#Cc2cccc3c2CN(C2CCC(=O)NC2=O)C3=O)C[C@H]1C(=O)Nc1ncc(-c2ccccc2)s1 (stereo partly drawn) [Compound 567, ((2-(((2S)-1-((2S,4R)-4-(8-(2-(2,6-dioxopiperidin-3-yl)-1-oxoisoindolin-4-yl)oct-7-ynamido)-2-((5-phenylthiazol-2-yl)carbamoyl)pyrrolidin-1-yl)-3,3-dimethyl-1-oxobutan-2-yl)carbamoyl)benzo[b]thiophen-5-yl)difluoromethyl)phosphonic acid] | > 300 | > 300 | – |
| – | < 100 | – | CN(CCCC#Cc1cccc2c1CN(C1CCC(=O)NC1=O)C2=O)C(=O)CCN(C(=O)[C@@H]1CCCN1C(=O)[C@@H](NC(=O)c1cc2cc(C(F)(F)P(=O)(O)OCOC(=O)C(C)(C)C)ccc2s1)C(C)(C)C)c1ccc2scnc2c1 (stereo partly drawn) [Compound 676, ((((2-(((2S)-1-((2S)-2-(benzo[d]thiazol-5-yl(3-((5-(2-(2,6-dioxopiperidin-3-yl)-1-oxoisoindolin-4-yl)pent-4-yn-1-yl)(methyl)amino)-3-oxopropyl)carbamoyl)pyrrolidin-1-yl)-3,3-dimethyl-1-oxobutan-2-yl)carbamoyl)benzo[b]thiophen-5-yl)difluoromethyl)(hydroxy)phosphoryl)oxy)methyl pivalate] | – | > 300 | – |
| – | – | – | CC(C)(C)[C@H](NC(=O)c1cc2cc(C(F)(F)P(=O)(O)O)ccc2s1)C(=O)N1CCC[C@H]1C(=O)N1C[C@@H](Oc2ccccc2)C[C@H]1C(=O)NCCCC#Cc1cccc2c1CN(C1CCC(=O)NC1=O)C2=O (stereo partly drawn) [Compound 658, ((2-(((2S)-1-((2S)-2-((2S,4S)-2-((5-(2-(2,6-dioxopiperidin-3-yl)-1-oxoisoindolin-4-yl)pent-4-yn-1-yl)carbamoyl)-4-phenoxypyrrolidine-1-carbonyl)pyrrolidin-1-yl)-3,3-dimethyl-1-oxobutan-2-yl)carbamoyl)benzo[b]thiophen-5-yl)difluoromethyl)phosphonic acid] | > 300 | > 300 | – |
| 100 to 1000 | < 100 | 100 to 1000 | CN(CCCC#Cc1cccc2c1CN(C1CCC(=O)NC1=O)C2=O)C(=O)CCN(C(=O)[C@@H]1CCCN1C(=O)[C@@H](NC(=O)c1cc2cc(C(F)(F)P(=O)(O)O)ccc2s1)C(C)(C)C)c1ccc(Br)cc1 (stereo partly drawn) [Compound 665, ((2-(((2S)-1-((2S)-2-((4-bromophenyl)(3-((5-(2-(2,6-dioxopiperidin-3-yl)-1-oxoisoindolin-4-yl)pent-4-yn-1-yl)(methyl)amino)-3-oxopropyl)carbamoyl)pyrrolidin-1-yl)-3,3-dimethyl-1-oxobutan-2-yl)carbamoyl)benzo[b]thiophen-5-yl)difluoromethyl)phosphonic acid] | – | > 300 | – |
